Key:
SARS-CoV-2 M^pro = SARS-CoV-2 M^pro (Severe acute respiratory syndrome coronavirus 2, UniProt P0DTD1); assay type: biochemical
[1] = mouse
in vivo = details: male, CD-1, mouse, po, 100 mg/kg

| SMILES | activity against Mpro in words (SARS-CoV-2 M^pro) | lung tissue Cmax ([1]; 25 mg/kg inhalative) | time of first appearance in plasma and urine post administration ([1]; 25 mg/kg inhalative) [min] | BALF concentrations at 5 h post administration (in words) ([1]; 100 mg/kg peroral, DOPS LUV formulation) | time up to which found in plasma and lung tissue ([1]; single inhalative dose 25 mg/kg) | CL/F (in vivo) [mL/min/kg] |
| --- | --- | --- | --- | --- | --- | --- |
| CC(C)(C)OC(=O)Nc1cccn([C@H](CC2CC2)C(=O)N[C@@H](C[C@@H]2CCNC2=O)C(=O)C(=O)NCc2ccccc2)c1=O [Compound 13b-H, tert-Butyl (1-((R)-1-(((S)-4-(Benzylamino)-3,4-dioxo-1-((S)-2-oxopyrrolidin-3-yl)butan-2-yl)amino)-3-cyclopropyl-1-oxopropan-2-yl)-2-oxo-1,2-dihydropyridin-3-yl)carbamate] | nearly inactive | – | – | – | – | – |
| CC(C)(C)OC(=O)Nc1cccn([C@@H](CC2CC2)C(=O)N[C@@H](C[C@@H]2CCNC2=O)C(=O)C(=O)NCc2ccccc2)c1=O [Compound 13b-K, tert-Butyl (1-((S)-1-(((S)-4-(Benzylamino)-3,4-dioxo-1-((S)-2-oxopyrrolidin-3-yl)butan-2-yl)amino)-3-cyclopropyl-1-oxopropan-2-yl)-2-oxo-1,2-dihydropyridin-3-yl)carbamate] | – | 261,748 ± 1294.4 ng/g | ≤ 15 | in the same range as after inhalative administration of 25 mg/kg | up to 24 h | 1160 |
